Data reported in PMC12892976, “Alkylation-based optimization of antifungal FPPS inhibitors yields a potent, broad-spectrum lipophilic zoledronate derivative” (mBio, 2025).
Like-named read-outs stand apart in the source and are kept apart here.

What was measured:
Saccharomyces cerevisiae [1] = test: MIC/MFC broth microdilution (CLSI); type: cell-based; settings: Saccharomyces cerevisiae S288c
Experimental: (§1) Antifungal susceptibility was determined by broth microdilution according to the CLSI guidelines described in M27-Ed4 ([16]). […] MFC was determined by back-plating drug-treated cultures from MIC broths onto SDA plates. The MFC was defined as the lowest concentration from which no colonies could be cultured.

Candida albicans [2] = test: MIC/MFC broth microdilution (CLSI); type: cell-based; settings: Candida albicans SC5314
Experimental: as §1

[3] = system: Cryptococcus deuterogattii; test: checkerboard drug interaction (FICI, MICc);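 as to all read-outs here: simplified diagonal checkerboard screen pairing antifungal drugs with FPPS inhibitors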; type: cell-based; settings: C. deuterogattii; for INH FD (MIC-MICc fold decrease): fold decrease of inhibitor MIC
Experimental: (§2) Drug interactions between antifungals and FPPS inhibitors were investigated using a simplified checkerboard diagonal screening method ([45]). […] FICIs were determined according to the Loewe additivity model ([17]).

Cryptococcus neoformans [4] = test: checkerboard drug interaction (FICI, MICc);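 as to all read-outs here: antifungal plus FPPS inhibitor pairs tested against Cryptococcus neoformans by simplified diagonal checkerboard screening, FICI computed under the Loewe additivity model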; type: cell-based; settings: C. neoformans; for INH FD (MIC-MICc fold decrease): fold decrease of inhibitor MIC
Experimental: as §2

Saccharomyces cerevisiae [5] = test: checkerboard drug interaction (FICI, MICc);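 as to all read-outs here: simplified diagonal checkerboard screen pairing antifungals with FPPS inhibitors, FICI calculated under the Loewe additivity model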; type: cell-based; parameters: INH MICc / INH MICc (ITR:INH) / INH MICc (KET:INH) / INH MICc (FLC:INH): unit not given beside the values; settings: S. cerevisiae; for INH FD (MIC-MICc fold decrease): fold decrease of inhibitor MIC
Candida glabrata [6] = test: checkerboard drug interaction (FICI, MICc);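 as to all read-outs here: simplified diagonal checkerboard screen pairing antifungals with FPPS inhibitors, FICI calculated under the Loewe additivity model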; type: cell-based; settings: C. glabrata; for INH FD (MIC-MICc fold decrease): fold decrease of inhibitor MIC
Experimental: as §2

Candida albicans [7] = test: checkerboard drug interaction (FICI, MICc);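 as to all read-outs here: antifungal plus FPPS inhibitor combinations on Candida albicans tested by a simplified diagonal checkerboard screen, with FICI calculated under the Loewe additivity model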; type: cell-based; settings: C. albicans; for INH FD (MIC-MICc fold decrease): fold decrease of inhibitor MIC
Experimental: as §2

Aspergillus flavus [8] = test: checkerboard drug interaction (FICI, MICc);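 also: simplified diagonal checkerboard screen pairing azole antifungals with FPPS inhibitors, FICI calculated under the Loewe additivity model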; type: cell-based; parameters: INH MICc (KET:INH) / INH MICc (FLC:INH): unit not given beside the values; settings: A. flavus
Aspergillus fumigatus [9] = test: checkerboard drug interaction (FICI, MICc);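 as to all read-outs here: simplified diagonal checkerboard screen pairing antifungals with FPPS inhibitors against Aspergillus fumigatus, with FICI calculated under the Loewe additivity model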; type: cell-based; settings: A. fumigatus; for INH FD (MIC-MICc fold decrease): fold decrease of inhibitor MIC
Experimental: as §2

Trichophyton rubrum [10] = test: checkerboard drug interaction (FICI, MICc);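 also: simplified diagonal checkerboard screen pairing azole antifungals with FPPS inhibitors, FICI calculated under the Loewe additivity model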; type: cell-based; settings: T. rubrum
Experimental: as §2

HEK-293T cells = test: MTT reduction cytotoxicity assay; type: cell-based; settings: Homo sapiens, HEK-293T, 72 h, MTT, 72 h
eight fungal species [11] = test: MIC/MFC summary across the eight fungal species of Table 1; type: cell-based
Experimental: The antifungal activity of these compounds was evaluated according to CLSI guidelines ([16]).

eight fungal species [12] = test: checkerboard interaction with azoles, summary across the eight species; type: cell-based; settings: geometric mean MIC in combination with azoles
Excerpt: Synergy between lipophilic FPPS inhibitors and azole antifungals was investigated by determining the fractional inhibitory concentration index (FICI) (Fig. 2; Table S1 Fig. S1) ([17]). […]. Derivatives PLA9 and 11, and PDA9, 11, and 12 antagonized azoles in C. albicans, C. neoformans, and C. deuterogattii, yet were largely synergistic in C. glabrata and S. cerevisiae. […].

[13] = system: Cryptococcus deuterogattii; test: MIC/MFC broth microdilution (CLSI); settings: Cryptococcus deuterogattii;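 also: broth microdilution per CLSI M27-Ed4. MFC is the lowest concentration yielding no colonies when MIC broths are subcultured onto SDA plates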
Experimental: as §1

Cryptococcus neoformans [14] = test: MIC/MFC broth microdilution (CLSI); settings: Cryptococcus neoformans;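 also: susceptibility testing followed the CLSI M27-Ed4 broth microdilution document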
Experimental: as §1

Candida glabrata [15] = test: MIC/MFC broth microdilution (CLSI); settings: Nakaseomyces glabratus, CBS138;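 also: broth microdilution following CLSI M27-Ed4, MFC taken as the lowest drug level yielding no growth once MIC wells were subcultured on SDA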
Experimental: as §1

Aspergillus flavus [16] = test: MIC/MFC broth microdilution (CLSI); settings: ATCC204304
Experimental: as §1

Aspergillus fumigatus [17] = test: MIC/MFC broth microdilution (CLSI); settings: ATCC204305
Experimental: as §1

Trichophyton rubrum [18] = test: MIC/MFC broth microdilution (CLSI); settings: Trichophyton rubrum
Experimental: as §1

[19] = FLC:INH combination, MIC of the inhibitor in combination with FLC
[20] = FLC:INH combination, fold decrease of FLC MIC
[21] = ITR:INH combination, MIC of the inhibitor in combination with ITR
[22] = ITR:INH combination, fold decrease of ITR MIC
[23] = KET:INH combination, MIC of the inhibitor in combination with KET
[24] = KET:INH combination, fold decrease of KET MIC
[25] = FLC:INH combination, MIC of FLC in combination with the inhibitor
[26] = ITR:INH combination, MIC of ITR in combination with the inhibitor
[27] = KET:INH combination, MIC of KET in combination with the inhibitor
[28] = Fractional Inhibitory Concentration Index, fluconazole + inhibitor
[29] = Fractional Inhibitory Concentration Index, itraconazole + inhibitor
[30] = Fractional Inhibitory Concentration Index, ketoconazole + inhibitor
[31] = MIC of the inhibitor in combination with fluconazole
[32] = MIC of the inhibitor in combination with itraconazole
[33] = MIC of the inhibitor in combination with ketoconazole
[34] = MIC-MICc fold decrease of fluconazole, negative = increase
[35] = MIC-MICc fold decrease of itraconazole, negative = increase
[36] = MIC-MICc fold decrease of ketoconazole, negative = increase
[37] = MIC-MICc fold decrease of the inhibitor, with fluconazole
[38] = MIC-MICc fold decrease of the inhibitor, with itraconazole
[39] = MIC-MICc fold decrease of the inhibitor, with ketoconazole

CCCCCCCCCN1CCC[C@H]1C(=O)N[C@@H](CC(=O)OC)C(=O)OC [dmPLA9]
> 128 µg/mL: MFC (Candida albicans [2]) | MIC (Candida albicans [2]) | MFC [13] | MFC (Cryptococcus neoformans [14]) | MFC (Candida glabrata [15]) | MFC (Aspergillus flavus [16]) | MIC (Aspergillus flavus [16]) | MFC (Aspergillus fumigatus [17]) | MFC (Trichophyton rubrum [18])
1: INH FD (MIC-MICc fold decrease) ([3]; FLC:INH combination) | INH FD (MIC-MICc fold decrease) ([3]; KET:INH combination) | INH FD (MIC-MICc fold decrease) (Cryptococcus neoformans [4]; KET:INH combination) | INH FD (MIC-MICc fold decrease) (Saccharomyces cerevisiae [5]; ITR:INH combination) | KET FD (MIC-MICc fold decrease) (Saccharomyces cerevisiae [5]; [24]) | ITR FD (MIC-MICc fold decrease) (Candida glabrata [6]; [22]) | KET FD (MIC-MICc fold decrease) (Candida glabrata [6]; [24]) | FICI (KET:INH) (Aspergillus flavus [8]; [30]) | FLC FD (FLC:INH) (Aspergillus flavus [8]; [34]) | ITR FD (ITR:INH) (Aspergillus flavus [8]; [35]) | INH FD (ITR:INH) (Aspergillus flavus [8]; [38]) | FLC FD (MIC-MICc fold decrease) (Aspergillus fumigatus [9]; [20]) | ITR FD (MIC-MICc fold decrease) (Aspergillus fumigatus [9]; [22]) | KET FD (MIC-MICc fold decrease) (Aspergillus fumigatus [9]; [24]) | INH FD (MIC-MICc fold decrease) (Aspergillus fumigatus [9]; KET:INH combination) | KET FD (KET:INH) (Trichophyton rubrum [10]; [36]) | INH FD (ITR:INH) (Trichophyton rubrum [10]; [38]) | INH FD (KET:INH) (Trichophyton rubrum [10]; [39])
≥4: FICI ([3]; ITR:INH combination) | FICI (Cryptococcus neoformans [4]; FLC:INH combination) | FICI (Cryptococcus neoformans [4]; ITR:INH combination) | FICI (Candida glabrata [6]; FLC:INH combination) | FICI (FLC:INH) (Trichophyton rubrum [10]; [28])
2: KET FD (MIC-MICc fold decrease) [3, 24] | INH FD (MIC-MICc fold decrease) (Saccharomyces cerevisiae [5]; FLC:INH combination) | KET MICc (Saccharomyces cerevisiae [5]; [27]) | INH MICc (Saccharomyces cerevisiae [5]; [23]) | FICI (ITR:INH) (Aspergillus flavus [8]; [29]) | KET FD (KET:INH) (Aspergillus flavus [8]; [36]) | INH FD (FLC:INH) (Aspergillus flavus [8]; [37]) | INH FD (KET:INH) (Aspergillus flavus [8]; [39]) | FICI (Aspergillus fumigatus [9]; KET:INH combination) | FICI (KET:INH) (Trichophyton rubrum [10]; [30]) | ITR FD (ITR:INH) (Trichophyton rubrum [10]; [35])
0.125: ITR MICc (Aspergillus fumigatus [9]; [26])
8: FLC MICc (Saccharomyces cerevisiae [5]; [25]) | INH MICc (Candida glabrata [6]; [21]) | INH MICc (Candida glabrata [6]; [23]) | INH FD (MIC-MICc fold decrease) (Candida albicans [7]; FLC:INH combination) | INH FD (MIC-MICc fold decrease) (Candida albicans [7]; ITR:INH combination) | INH FD (MIC-MICc fold decrease) (Candida albicans [7]; KET:INH combination)
-4: ITR FD (MIC-MICc fold decrease) [3, 22] | FLC FD (MIC-MICc fold decrease) (Cryptococcus neoformans [4]; [20]) | ITR FD (MIC-MICc fold decrease) (Cryptococcus neoformans [4]; [22]) | FLC FD (MIC-MICc fold decrease) (Candida glabrata [6]; [20])
0.5: ITR MICc (Saccharomyces cerevisiae [5]; [26])
1.5: FICI ([3]; KET:INH combination) | FICI (Candida glabrata [6]; ITR:INH combination) | FICI (Candida glabrata [6]; KET:INH combination) | FICI (FLC:INH) (Aspergillus flavus [8]; [28]) | FICI (ITR:INH) (Trichophyton rubrum [10]; [29])
1.06: FICI (Saccharomyces cerevisiae [5]; KET:INH combination)
2.5: FICI (Saccharomyces cerevisiae [5]; FLC:INH combination)
32 µg/mL: MFC (Saccharomyces cerevisiae [1]) | MIC (Saccharomyces cerevisiae [1])
52.3: GM fungal MICc (eight fungal species [12])
16: INH MICc (Saccharomyces cerevisiae [5]; [19]) | INH FD (MIC-MICc fold decrease) (Saccharomyces cerevisiae [5]; KET:INH combination) | INH MICc (Candida albicans [7]; [19]) | INH MICc (Candida albicans [7]; [21]) | INH MICc (Candida albicans [7]; [23])
3: FICI ([3]; FLC:INH combination) | FICI (Cryptococcus neoformans [4]; KET:INH combination) | FICI (Saccharomyces cerevisiae [5]; ITR:INH combination) | FICI (Aspergillus fumigatus [9]; FLC:INH combination)
1.03: FICI (Aspergillus fumigatus [9]; ITR:INH combination)
41.4 µg/mL: IC50 (HEK-293T cells; HEK-293T cells, read-out: IC50) | IC50 (HEK-293T cells; read-out: HEK IC50)
32: INH MICc (Saccharomyces cerevisiae [5]; [21]) | INH FD (MIC-MICc fold decrease) (Candida glabrata [6]; ITR:INH combination) | INH FD (MIC-MICc fold decrease) (Candida glabrata [6]; KET:INH combination) | INH FD (MIC-MICc fold decrease) (Aspergillus fumigatus [9]; ITR:INH combination)
256: INH MICc [3, 21] | INH MICc (ITR:INH) (Aspergillus flavus [8]; [32]) | INH MICc (Aspergillus fumigatus [9]; [19]) | INH MICc (FLC:INH) (Trichophyton rubrum [10]; [31])
197 µg/mL: MFC (eight fungal species [11]; across eight species, read-out: Geometric mean MFC)
128: INH MICc [3, 19] | INH MICc [3, 23] | INH MICc (Cryptococcus neoformans [4]; [19]) | INH MICc (Cryptococcus neoformans [4]; [21]) | INH MICc (FLC:INH) (Aspergillus flavus [8]; [31]) | INH MICc (KET:INH) (Aspergillus flavus [8]; [33]) | FLC MICc (Aspergillus fumigatus [9]; [25]) | INH MICc (Aspergillus fumigatus [9]; [23]) | INH MICc (ITR:INH) (Trichophyton rubrum [10]; [32]) | INH MICc (KET:INH) (Trichophyton rubrum [10]; [33])
2.13: FICI (Candida albicans [7]; FLC:INH combination) | FICI (Candida albicans [7]; ITR:INH combination) | FICI (Candida albicans [7]; KET:INH combination)
128 µg/mL: MIC (eight fungal species [11]; geometric mean across eight species, read-out: GM fungal MIC) | MIC (eight fungal species [11]; read-out: Geometric mean MIC) | MIC [13] | MIC (Cryptococcus neoformans [14]) | MIC (Candida glabrata [15]) | MIC (Aspergillus fumigatus [17]) | MIC (Trichophyton rubrum [18])
64: INH MICc (Cryptococcus neoformans [4]; [23]) | INH MICc (Candida glabrata [6]; [19])
-2: FLC FD (MIC-MICc fold decrease) [3, 20] | INH FD (MIC-MICc fold decrease) ([3]; ITR:INH combination) | INH FD (MIC-MICc fold decrease) (Cryptococcus neoformans [4]; FLC:INH combination) | INH FD (MIC-MICc fold decrease) (Cryptococcus neoformans [4]; ITR:INH combination) | KET FD (MIC-MICc fold decrease) (Cryptococcus neoformans [4]; [24]) | FLC FD (MIC-MICc fold decrease) (Saccharomyces cerevisiae [5]; [20]) | ITR FD (MIC-MICc fold decrease) (Saccharomyces cerevisiae [5]; [22]) | FLC FD (MIC-MICc fold decrease) (Candida albicans [7]; [20]) | ITR FD (MIC-MICc fold decrease) (Candida albicans [7]; [22]) | KET FD (MIC-MICc fold decrease) (Candida albicans [7]; [24]) | INH FD (MIC-MICc fold decrease) (Aspergillus fumigatus [9]; FLC:INH combination) | FLC FD (FLC:INH) (Trichophyton rubrum [10]; [34]) | INH FD (FLC:INH) (Trichophyton rubrum [10]; [37])
4: INH FD (MIC-MICc fold decrease) (Candida glabrata [6]; FLC:INH combination) | INH MICc (Aspergillus fumigatus [9]; [21]) | KET MICc (Aspergillus fumigatus [9]; [27])
